Twelve compounds from PubChem BioAssay (NCI) can be followed below.

Molecules are shown by their SMILES. Where “and” joins values, the source holds several entries; their conditions need not be identical. Equal entries are not always repeated.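 All cell lines were grown in 96-well plates and treated with compound for 48 hours. GI50 is the concentration that inhibits growth by half. At the TGI there is no net growth.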

Among the test systems are 786-0 renal; BT-549 breast; EKVX NSCLC; HS 578T breast; HT29 colon; MCF7 breast; MDA-MB-435; PC-3 prostate; RXF 393 renal; SK-OV-3 ovarian.
Holding throughout (assay): NCI-60 cell line screen, 48 h

Consider `CC(C)Cc1cc(-c2cccn2C)c(C#N)c(=O)[nH]1`, for which the GI50 in the assay on 786-0 renal, with BT-549 breast, in the assay on EKVX NSCLC, with HS 578T breast, in the assay on HT29 colon and in the assay on MCF7 breast was above 100 µM in each case. The GI50 with MDA-MB-435, with PC-3 prostate, in the assay with RXF 393 renal and in the assay with SK-OV-3 ovarian was above 100 µM in each case. Also, the TGI in the assay with 786-0 renal, with BT-549 breast, with EKVX NSCLC, in the assay with HS 578T breast, in the assay on HT29 colon and with MCF7 breast was above 100 µM throughout. The TGI in the assay with MDA-MB-435, in the assay with PC-3 prostate, in the assay with RXF 393 renal and in the assay with SK-OV-3 ovarian was above 100 µM throughout.
Take `COc1ccc(COc2ccc(Cc3cnc(N)nc3N)cc2OC)cc1`: the GI50 in the assay with 786-0 renal is above 25 µM; in the assay on BT-549 breast, 12.1 µM; in the assay on EKVX NSCLC, above 16.2 µM; in the assay on HS 578T breast, above 23.4 µM; in the assay on HT29 colon it was 11.7 µM; with MCF7 breast, 11.7 µM. Besides, the GI50 in the assay with MDA-MB-435 is above 25 µM; with PC-3 prostate it was above 22.4 µM; in the assay with RXF 393 renal, 8.21 µM; with SK-OV-3 ovarian, above 25 µM. Moreover, the TGI in the assay on 786-0 renal, in the assay on BT-549 breast, in the assay on EKVX NSCLC, in the assay on HS 578T breast, in the assay with HT29 colon and with MCF7 breast was above 25 µM each time. The TGI with MDA-MB-435, with PC-3 prostate, in the assay with RXF 393 renal and with SK-OV-3 ovarian was above 25 µM each time.
Take `Cc1c(-c2c(F)cc(C(N)=O)c3[nH]c4c(c23)CC[C@H](C(C)(C)O)C4)cccc1-n1c(=O)c2cccc(F)c2n(C)c1=O`: the GI50 is 3.54 µM in the assay with 786-0 renal; 3.93 µM with BT-549 breast; 1.95 µM in the assay on EKVX NSCLC; 4.62 µM in the assay with HS 578T breast; 0.864 µM with HT29 colon; 1.04 µM in the assay with MCF7 breast. Further, the GI50 was 3.81 µM in the assay with MDA-MB-435, 2.67 µM in the assay with PC-3 prostate, 1.61 µM in the assay with RXF 393 renal and 6.35 µM in the assay on SK-OV-3 ovarian. Further, the TGI in the assay on 786-0 renal was above 100 µM; in the assay on BT-549 breast, 63 µM; with EKVX NSCLC, above 100 µM; with HS 578T breast, above 100 µM; in the assay on HT29 colon, above 100 µM; in the assay with MCF7 breast, above 100 µM. Also, the TGI was above 100 µM in the assay on MDA-MB-435, above 100 µM with PC-3 prostate, 5.31 µM in the assay on RXF 393 renal and above 100 µM in the assay on SK-OV-3 ovarian.
In the case of `C#Cc1cccc(NC(=O)C2CCCCN2C(=O)CCl)c1` (configuration not stated), the GI50 is 16.2 µM with 786-0 renal; 12.5 µM in the assay on BT-549 breast; above 82.5 µM with EKVX NSCLC; 18.4 µM in the assay on HS 578T breast; 18.7 µM with HT29 colon; 15.8 µM in the assay on MCF7 breast. The GI50 in the assay with MDA-MB-435 is 15.8 µM; with PC-3 prostate, 32.9 µM; in the assay with RXF 393 renal, 13.4 µM; in the assay on SK-OV-3 ovarian, above 82.5 µM. The TGI was 32 µM in the assay on 786-0 renal; 27.2 µM in the assay with BT-549 breast; above 82.5 µM with EKVX NSCLC; 76.4 µM in the assay with HS 578T breast; 41.9 µM in the assay with HT29 colon; above 82.5 µM in the assay on MCF7 breast. The TGI is 60.7 µM with MDA-MB-435, above 82.5 µM with PC-3 prostate, 34.4 µM in the assay on RXF 393 renal and above 82.5 µM in the assay with SK-OV-3 ovarian.
Regarding `COc1ccc(/C=C2\CCC(C)(CN(C)C)C2=O)cc1Br` (configuration not stated), the TGI in the assay with 786-0 renal came to 34.9 µM; in the assay on BT-549 breast it was 45.4 µM; in the assay on EKVX NSCLC, 49.3 µM; in the assay on HS 578T breast, 85.4 µM; in the assay with HT29 colon, 49.6 µM; in the assay on MCF7 breast, 42.1 µM. Further, the TGI was determined as 44 µM with MDA-MB-435, 39.7 µM in the assay on PC-3 prostate, 35.7 µM with RXF 393 renal and 70.5 µM with SK-OV-3 ovarian.
Consider `Cc1cccc(Nc2ncc(-c3ccccc3)o2)c1`, for which the GI50 with 786-0 renal is above 25 µM; in the assay with BT-549 breast, above 25 µM; in the assay on EKVX NSCLC, above 25 µM; in the assay with HS 578T breast, above 7 µM; with HT29 colon, above 25 µM; in the assay with MCF7 breast it was 12.9 µM. Also, the GI50 with MDA-MB-435, in the assay with PC-3 prostate, in the assay with RXF 393 renal and in the assay with SK-OV-3 ovarian was above 25 µM each time. For the same compound, the TGI in the assay with 786-0 renal, in the assay on BT-549 breast, with EKVX NSCLC, in the assay on HS 578T breast, with HT29 colon and with MCF7 breast was above 25 µM throughout. Moreover, the TGI with MDA-MB-435, in the assay with PC-3 prostate, in the assay with RXF 393 renal and with SK-OV-3 ovarian was above 25 µM in each case.
For `COc1ccc2c(c1)C(=O)CC(C(N)=O)C2` (configuration not stated), the TGI with 786-0 renal, in the assay with BT-549 breast, in the assay on EKVX NSCLC, in the assay on HS 578T breast, in the assay with HT29 colon and in the assay with MCF7 breast was above 100 µM in each case. The TGI with MDA-MB-435, in the assay with PC-3 prostate, in the assay with RXF 393 renal and with SK-OV-3 ovarian was above 100 µM each time.
With `Cc1nc(-n2nc(-c3ccccc3)cc2-c2ccccc2)sc1C(/C=C\c1ccc([N+](=O)[O-])cc1)=N/NC(=S)NN`, the TGI is 46 µM in the assay with 786-0 renal; 49.2 µM in the assay with BT-549 breast; above 100 µM in the assay with EKVX NSCLC; above 100 µM in the assay with HS 578T breast; above 72 µM with HT29 colon; 35.1 µM in the assay on MCF7 breast. Besides, the TGI with MDA-MB-435 is above 100 µM; in the assay on PC-3 prostate, above 100 µM; in the assay on RXF 393 renal, above 59 µM; with SK-OV-3 ovarian, above 100 µM.
As for `Clc1ccc(Nc2nnc(COc3ccccc3)c3ccccc23)cc1`, the GI50 is 2.6 µM in the assay with 786-0 renal; 2.05 µM in the assay on BT-549 breast; 0.679 µM with EKVX NSCLC; 2.58 µM with HS 578T breast; 0.429 µM with HT29 colon; 1.18 µM in the assay with MCF7 breast. Also, the GI50 in the assay on MDA-MB-435 is 1.01 µM; in the assay on PC-3 prostate, 1.3 µM; with RXF 393 renal, 1.01 µM; with SK-OV-3 ovarian, 2.38 µM. Also, the TGI worked out at 8.11 µM with 786-0 renal; 6.65 µM in the assay on BT-549 breast; 7.32 µM in the assay with EKVX NSCLC; 10.5 µM in the assay on HS 578T breast; 4.25 µM in the assay on HT29 colon; 6.07 µM in the assay on MCF7 breast. In addition, the TGI in the assay with MDA-MB-435 was determined as 5.31 µM; with PC-3 prostate, 10.1 µM; in the assay on RXF 393 renal, 4.98 µM; in the assay on SK-OV-3 ovarian it was 9.96 µM.
In the case of `Cn1cc(-c2nc(-c3c[nH]c4ccccc34)cs2)c2cccnc21`, the GI50 in the assay on 786-0 renal was 0.525 µM; in the assay with BT-549 breast, 0.325 µM; with EKVX NSCLC it was 0.907 µM; in the assay with HS 578T breast it was 0.424 µM; with HT29 colon, 0.166 µM; in the assay with MCF7 breast it was 0.325 µM. For the same compound, the GI50 in the assay on MDA-MB-435 was 0.0321 µM; in the assay with PC-3 prostate, 0.41 µM; in the assay with RXF 393 renal, 0.368 µM; in the assay on SK-OV-3 ovarian, 0.523 µM. The TGI with 786-0 renal is 49.4 µM; with BT-549 breast it was 17.8 µM; in the assay on EKVX NSCLC, above 100 µM; in the assay with HS 578T breast, above 85.1 µM; in the assay on HT29 colon it was 18.3 µM; in the assay with MCF7 breast, above 100 µM. The TGI with MDA-MB-435 is 0.25 µM; in the assay on PC-3 prostate it was above 100 µM; with RXF 393 renal, 15.9 µM; in the assay with SK-OV-3 ovarian it was above 82.4 µM.
On to `NC(=O)C1CCCN1Cc1ccc2c(c1)OCO2` (configuration not stated), for which the TGI with 786-0 renal, in the assay with BT-549 breast, in the assay on EKVX NSCLC, with HS 578T breast, with HT29 colon and in the assay with MCF7 breast was above 100 µM each time. Besides, the TGI with MDA-MB-435, in the assay with PC-3 prostate, in the assay on RXF 393 renal and in the assay on SK-OV-3 ovarian was above 100 µM each time.
`C/C=C1/CN2CCC34c5ccccc5N5C(=O)C(C6CC78c9ccccc9N9C(=O)C=CC(C%10CC7N6C/C%10=C/C)C98)=CC(C1CC23)C54` (configuration not stated): the GI50 with 786-0 renal was 5.51 µM; in the assay with EKVX NSCLC it was 12.5 µM; with HS 578T breast, 16.6 µM; with MCF7 breast it was 2.9 µM; in the assay with MDA-MB-435, 7.47 µM; with PC-3 prostate, 2.45 µM. Besides, the GI50 in the assay on SK-OV-3 ovarian is 15.3 µM. Also, the TGI was 11.3 µM and 20.1 µM in the assay with 786-0 renal; 16.4 µM and 21.9 µM in the assay on BT-549 breast; 14.5 µM and 26.4 µM in the assay on EKVX NSCLC; 20.9 µM and 73.2 µM in the assay on HS 578T breast; 9.87 µM and 5.4 µM in the assay on HT29 colon; 8.15 µM and 12 µM with MCF7 breast. The TGI in the assay with MDA-MB-435 was 21.4 µM and 21.7 µM; with PC-3 prostate, 9.38 µM; in the assay on RXF 393 renal it was 8.57 µM; in the assay on SK-OV-3 ovarian, 19.1 µM and 29.7 µM.
